Assay results from ChEMBL document CHEMBL1150912, “A new taxane diterpenoid from Taxus mairei” (J Nat Prod, 1998).
≈ marks a conversion by molar mass, not a printed value. Starred links: 1 amine or outer side, 2 acyl side, 3 side chain; linkers in the order of their positions; H or OH if unused. Positions of bridges follow the written chain, without caps; N, C: chain ends. Non-standard residues stand in square brackets, D forms with d. Residues, ends and D or L forms follow the SMILES beside them. Chains are numbered I, II in the order given. Actinocin(1to9) = Cc1c2oc3c(C)ccc(C(=O)[*:2])c3nc-2c(C(=O)[*:1])c(N)c1=O; NMeV = CN[C@H](C(=O)O)C(C)C; Sar = CNCC(=O)O

Tests used:
HeLa = experiment: Cytotoxicity against human HeLa cells after 3 days by methylene blue assay; type: functional, cell-based; conditions: 72 h
[1] = Cytotoxicity against human Hep3B cells after 3 days by methylene blue assay; type: functional, cell-based, Hep 3B2; conditions: 72 h

Cc1c2oc3c(C)ccc(C(=O)N[C@@H]4C(=O)N[C@H](C(C)C)C(=O)N5CCC[C@H]5C(=O)N(C)CC(=O)N(C)[C@@H](C(C)C)C(=O)O[C@@H]4C)c3nc-2c(C(=O)N[C@@H]2C(=O)N[C@H](C(C)C)C(=O)N3CCC[C@H]3C(=O)N(C)CC(=O)N(C)[C@@H](C(C)C)C(=O)O[C@@H]2C)c(N)c1=O [DACTINOMYCIN] (I: T[dV]P[Sar][NMeV] / II: T[dV]P[Sar][NMeV]; ester I:1-I:C, II:1-II:C; linker I:N-II:N via Actinocin(1to9))
IC50 (HeLa): 0.01 µg/mL (≈ 0.00797 µM) | IC50 [1]: 0.01 µg/mL (≈ 0.00797 µM)

CO[C@@]12[C@H](COC(N)=O)C3=C(C(=O)C(C)=C(N)C3=O)N1C[C@@H]1N[C@@H]12 [MITOMYCIN]
IC50 (HeLa): 0.01 µg/mL (≈ 0.0299 µM) | IC50 [1]: 0.01 µg/mL (≈ 0.0299 µM)

CC(=O)O[C@H]1[C@@H]2[C@]3(OC(C)=O)CO[C@@H]3C[C@H](O)[C@@]2(C)[C@@H](OC(=O)c2ccccc2)[C@H](O)C2=C(C)[C@@H](O)C[C@]21C(C)(C)O [TAXUMAIROL K]
IC50 (HeLa): 9.2 µg/mL (≈ 15.6 µM) | IC50 [1]: 40 µg/mL (≈ 68 µM)
